This note sets out measurements from BindingDB's records for doi:10.7270/Q2TX3CTT (Broad Institute, 2010).

The experiment deals with Glycogen synthase kinase-3 beta (Homo sapiens, UniProt P49841). Put plainly: GSK3beta kinase inhibitor potency, dose response, biochemical, luminescence, cell-free homogeneous, retest (AID 434954).
Glycogen synthase kinase-3 beta, sequence (P49841 whole entry): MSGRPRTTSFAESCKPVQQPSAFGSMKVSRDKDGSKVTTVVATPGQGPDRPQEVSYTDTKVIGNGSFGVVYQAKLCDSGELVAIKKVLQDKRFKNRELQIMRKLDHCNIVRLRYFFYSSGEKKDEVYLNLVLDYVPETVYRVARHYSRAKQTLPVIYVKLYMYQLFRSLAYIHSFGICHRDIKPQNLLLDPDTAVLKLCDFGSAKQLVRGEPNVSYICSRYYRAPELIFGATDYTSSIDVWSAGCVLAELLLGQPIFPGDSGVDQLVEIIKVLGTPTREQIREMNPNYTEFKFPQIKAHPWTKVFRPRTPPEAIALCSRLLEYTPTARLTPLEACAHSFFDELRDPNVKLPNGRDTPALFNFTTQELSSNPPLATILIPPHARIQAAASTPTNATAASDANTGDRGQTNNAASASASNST
The term EC50 denotes the concentration needed to bring the measured effect to its halfway point. A low value points to a more potent agent. Regarding `Nc1nnc(CC(=O)NN=Cc2ccccc2OCc2ccc(F)cc2)s1` [SMR000420435], the half-maximal effective concentration (EC50) was > 300 µM.

`COc1ccc(C(=O)c2sc(Nc3ccccc3)nc2N)cc1OC` [MLS001202046] displayed an EC50 of 0.358 µM.

In the case of `Cn1c(SCc2nc(-c3ccccc3)no2)nnc1-c1ccco1`, the EC50 was > 300 µM. To `CN1CCN(C(=O)c2ccc(OCCOc3ccccc3)cc2)CC1` [(4-methylpiperazin-1-yl)-[4-(2-phenoxyethoxy)phenyl]methanone] belongs > 300 µM; to `Cc1ccc(OCC(=O)NN=Cc2ccccc2)c([N+](=O)[O-])c1` [2-(4-methyl-2-nitro-phenoxy)-N-[(phenylmethylidene)amino]ethanamide], > 300 µM. As for `CCCCCC(=O)N1CCN(S(=O)(=O)c2ccc3c(c2)OCCCO3)CC1` [MLS001161784], the figure is > 300 µM. As for `O=C1c2ccccc2NC(c2c[nH]nc2-c2ccccc2)N1O` (stereo not drawn), the figure is > 300 µM. For `O=C(Nc1ccccn1)Nc1ccccc1[N+](=O)[O-]` [N-(2-nitrophenyl)-N'-pyridin-2-ylurea], the 50% effective concentration (EC50) is > 300 µM. As for `Cc1ccc(C=NNC(=O)c2cncc(Br)c2)o1` [SMR000226283], the figure is > 300 µM; as for `NS(=O)(=O)c1ccc(-c2ccc(/C=C3\NC(=S)NC3=O)o2)cc1`, 46.5 µM. For the compound `O=C(NC1CCCCCC1)C1CCCN(S(=O)(=O)c2cccs2)C1` (stereo not drawn) [N-cycloheptyl-1-thiophen-2-ylsulfonylpiperidine-3-carboxamide], the concentration for a half-maximal effect (EC50) was > 300 µM.

On to `Cc1ccc(-n2c(N)c(C(=O)NCc3cccnc3)sc2=S)cc1` [MLS000535145], for which the EC50 was > 300 µM.

With `COc1cc(NC2=CC(=O)CC(C)(C)C2)cc(OC)c1OC` [5,5-dimethyl-3-(3,4,5-trimethoxyanilino)-1-cyclohex-2-enone], the EC50 is > 300 µM. Regarding `COc1ccc2nc(NC(=O)CSC3=NCCS3)sc2c1` [SMR000012424], the half-maximal effective concentration (EC50) is > 300 µM. With `CC1CCCCC1NS(=O)(=O)c1ccc2c(c1)CC(=O)N2C` (stereo not drawn), the concentration for a half-maximal effect (EC50) is > 300 µM.

Consider `c1ccc2c(c1)OCC(CNCC1COc3ccccc3O1)O2` (stereo not drawn) [1-(2,3-dihydro-1,4-benzodioxin-3-yl)-N-(2,3-dihydro-1,4-benzodioxin-3-ylmethyl)methanamine], for which the EC50 is > 300 µM. The compound `COc1ccc(-c2nn(-c3ccccc3)cc2CN=O)cc1OC` [N-[[3-(3,4-dimethoxyphenyl)-1-phenylpyrazol-4-yl]methylidene]hydroxylamine] registered a half-maximal effective concentration (EC50) of 3.99 µM.

`O=C(COc1ccccc1[N+](=O)[O-])N/N=C/c1ccc[nH]1` [(2-Nitro-phenoxy)-acetic acid [1-(1H-pyrrol-2-yl)-meth-(E)-ylidene]-hydrazide]: the EC50 was > 300 µM. For `COC(=O)c1nnn(-c2nonc2N)c1CSc1nc2ccccc2o1` [methyl 1-(4-amino-1,2,5-oxadiazol-3-yl)-5-[(1,3-benzoxazol-2-ylthio)methyl]-1H-1,2,3-triazole-4-carboxylate], the EC50 is 127 µM.

Regarding `CC(C)OCCCN1CN(S(=O)(=O)c2cccc(Cl)c2)c2nc3ccccc3nc21` [1-(3-Chloro-benzenesulfonyl)-3-(3-isopropoxy-propyl)-2,3-dihydro-1H-imidazo[4,5-b]quinoxaline], the EC50 was > 300 µM. To `C=C(Cl)COc1ccc2c(CCCC)cc(=O)oc2c1` [4-butyl-7-(2-chloranylprop-2-enoxy)chromen-2-one] belongs > 300 µM.

Turning to `CN1CCN(c2cc([N+](=O)[O-])ccc2Cl)CC1`, the EC50 is > 300 µM.

In turn, `COc1ccc(CC(=O)Nc2nc(-c3ccccc3)c(C(C)=O)s2)cc1OC` [2-(3,4-dimethoxyphenyl)-N-(5-ethanoyl-4-phenyl-1,3-thiazol-2-yl)ethanamide] displayed a 50% effective concentration (EC50) of 7.48 µM. Turning to `Nc1nc(Nc2cccc(F)c2)nc(NCCO)c1[N+](=O)[O-]` [2-[[6-amino-2-(3-fluoroanilino)-5-nitro-4-pyrimidinyl]amino]ethanol], a half-maximal effect (EC50) was put at 114 µM. As for `OC1(C#CCN2CCOCC2)CCCCC1`, the figure is > 300 µM; as for `CN(C)CCCNc1nc(N)c([N+](=O)[O-])c(NC2CCCCC2)n1` [MLS001213448], 3.15 µM.

For `S=C1Nc2cc(Cl)ccc2Sc2ccccc21` [MLS000698392], the EC50 is > 300 µM. As to `Nc1nonc1-n1nnc(C(=O)NN=Cc2ccccc2O)c1CN1CCCC1` [1-(4-amino-1,2,5-oxadiazol-3-yl)-N'-[(E)-(6-oxo-1-cyclohexa-2,4-dienylidene)methyl]-5-(1-pyrrolidinylmethyl)-4-triazolecarbohydrazide], the EC50 came to 24.6 µM. `Cc1ccc([N+](=O)[O-])cc1/N=C1\C(=O)Nc2ccccc21`: the EC50 is > 300 µM. As for `COc1ccccc1-c1nc(C(=O)NCC2CCCO2)cc2c1[nH]c1ccccc12` (stereo not drawn) [1-(2-methoxyphenyl)-N-(oxolan-2-ylmethyl)-9H-pyrido[3,4-b]indole-3-carboxamide], the figure is > 300 µM; as for `CCOc1cc(C2c3c(C)n[nH]c3C(=O)N2c2ccc(C)cc2)ccc1O` (stereo not drawn) [SMR000035605], > 300 µM; as for `CN(C)Cc1ccc(-c2nc3cccc4c3n2CCNC4=O)cc1`, 27.5 µM. `N#Cc1cccc(-c2nnc(SCc3ccccc3C#N)o2)c1` [SMR000006352]: the concentration giving a half-maximal response (EC50) is > 300 µM. As for `Nc1nc(NCC2CCCO2)nc(Nc2ccccc2)c1[N+](=O)[O-]` (stereo not drawn) [5-nitro-2-N-(oxolan-2-ylmethyl)-4-N-phenylpyrimidine-2,4,6-triamine], the figure is 2.17 µM; as for `N=C(Cc1nc2ccccc2s1)NO` [2-(1,3-benzothiazol-2-yl)-N'-oxidanyl-ethanimidamide], > 300 µM. On to `Cc1ccc(S(=O)(=O)NN=Cc2cn(-c3ccccc3)nc2-c2ccccc2)cc1` [N-[(1,3-diphenylpyrazol-4-yl)methylideneamino]-4-methylbenzenesulfonamide], for which the half-maximal effective concentration (EC50) is > 300 µM.

`CCCOc1cc(C)nc(-c2ccccc2O)n1` [(6E)-6-(6-methyl-4-propoxy-1H-pyrimidin-2-ylidene)-1-cyclohexa-2,4-dienone]: the EC50 was > 300 µM.

Take `COc1cccc(C(=O)CSc2nccn2C)c1` [1-(3-Methoxy-phenyl)-2-(1-methyl-1H-imidazol-2-ylsulfanyl)-ethanone]: the EC50 is > 300 µM. For `CC1=C(C#N)C(=O)NC(=O)C1=NNc1cccc(C)c1` [(5Z)-4-methyl-5-[(3-methylphenyl)hydrazinylidene]-2,6-bis(oxidanylidene)pyridine-3-carbonitrile], the concentration for a half-maximal effect (EC50) came to 0.775 µM. Compound `CC1=Nc2ncnn2C(c2cccnc2)C1C(=O)OCc1ccccc1` (stereo not drawn) [(phenylmethyl) 5-methyl-7-pyridin-3-yl-1,7-dihydro-[1,2,4]triazolo[1,5-a]pyrimidine-6-carboxylate] displayed an EC50 of 28 µM. To `CC1CCCCC1NC(=O)CN(C)S(=O)(=O)c1cccc2cccnc12` (stereo not drawn) [N-(2-methylcyclohexyl)-2-[methyl(quinolin-8-ylsulfonyl)amino]acetamide] belongs > 300 µM; to `CCn1cc(CN2CCC(n3nccc3NC(=O)CCCc3ccccc3)CC2)cn1` [N-[2-[1-[(1-ethylpyrazol-4-yl)methyl]piperidin-4-yl]pyrazol-3-yl]-4-phenyl-butanamide], > 300 µM; to `O=C(O)/C=C/c1cccc2c1OCCO2` [(E)-3-(2,3-dihydro-1,4-benzodioxin-5-yl)-2-propenoic acid], > 300 µM. As for `O=c1oc(-c2cccs2)nc2sc3c(c12)CCCC3` [SMR000116853], the figure is > 300 µM; as for `O=C1Nc2ccccc2C1=Cc1cnc[nH]1` [SMR000180717], 2.99 µM. As for `Cc1cc(OCC(F)(F)C(F)(F)C(F)(F)C(F)F)nc(N)n1` [SMR000122155], the EC50 was > 300 µM. As for `Cc1nn(CC(=O)NCCCN2CCCCC2)c(=O)c2cccn12` [2-(4-methyl-1-oxidanylidene-pyrrolo[1,2-d][1,2,4]triazin-2-yl)-N-(3-piperidin-1-ylpropyl)ethanamide], the figure is > 300 µM; as for `CC(C)CC(=O)Nc1ncc([N+](=O)[O-])s1` [MLS001043214], 4.86 µM. As for `COc1cc(OC)cc(C(=O)NCC2CCCN(C(=O)c3csc(C)n3)C2)c1` (stereo not drawn) [MLS001072180], the figure is > 300 µM; as for `CCNc1nc(N)nc(Oc2ccc(OCCOc3ccc(Cl)cc3Cl)nn2)n1` [6-[6-[2-(2,4-dichlorophenoxy)ethoxy]pyridazin-3-yl]oxy-2-N-ethyl-1,3,5-triazine-2,4-diamine], > 300 µM. To `OC(CNc1nc(-c2cccnc2)nc2ccccc12)c1ccccc1` (stereo not drawn) [SMR000592049] belongs > 300 µM; to `C=c1cc2[nH]c(=O)c(=Cc3ccc(OCC)c(OC)c3)c(=N)n2o1` [SMR000309341], > 300 µM; to `Nc1nc(NCc2ccccc2)nc(Nc2ccc(F)cc2)c1[N+](=O)[O-]` [2-N-benzyl-4-N-(4-fluorophenyl)-5-nitropyrimidine-2,4,6-triamine], > 300 µM.

In the case of `Clc1ccc2c(c1)Nc1ccccc1CC2` [3-chloro-10,11-dihydro-5H-dibenzo[b,f]azepine], the EC50 was > 300 µM. Take `O=C(Nc1ncc([N+](=O)[O-])s1)c1ccco1` [N-(5-nitro-2-thiazolyl)-2-furancarboxamide]: the EC50 was > 300 µM. To `CCN(CC)S(=O)(=O)c1cccc(NC(=O)COc2ccc(Cl)cc2Br)c1` [2-(2-bromanyl-4-chloranyl-phenoxy)-N-[3-(diethylsulfamoyl)phenyl]ethanamide] belongs > 300 µM; to `CC(=O)Nc1ccc(S(=O)(=O)NCc2ccc(C)n2C)cc1` [N-[4-[(1,5-dimethylpyrrol-2-yl)methylsulfamoyl]phenyl]ethanamide], > 300 µM.

`O=C(C[n+]1ccc(C=Cc2ccccc2)cc1)c1ccc2c(c1)OCCO2` yielded a concentration giving a half-maximal response (EC50) of 125 µM. As for `Cc1ccc(-c2nn(-c3ccccc3)cc2CNCc2ccccc2)cc1` [MLS000672046], the EC50 was > 300 µM. As for `OCCCNc1nccc(-c2cc(Nc3cccc(Cl)c3)ncn2)n1` [3-[[4-[6-[(3-chlorophenyl)amino]pyrimidin-4-yl]pyrimidin-2-yl]amino]propan-1-ol], the figure is 0.0779 µM. Turning to `CCN(CC)C(=O)CSc1nc(N)c(C#N)c(-c2cccs2)c1C#N` [SMR000115110], the concentration for a half-maximal effect (EC50) was > 300 µM. To `NC(=O)COC(=O)c1ccc(-c2ccc(O)cc2)cc1` belongs > 300 µM; to `CCCNC(=O)c1ccc(SCC(=O)N(CC)CC)c([N+](=O)[O-])c1`, > 300 µM.
